Target: T1, HSP-90 (Homo sapiens, UniProt P07900)
T1 construct: fused on or other part: 6-His tag at the C-terminus
Experiment: HSP-90 SPA (scintillation proximity assay) competition binding assay, displacement of tritiated propyl-Geldanamycin
Conditions: for inhibition at 1 µM: read-out: % inhibition @ 1 μM; for inhibition at 10 µM: read-out: % inhibition @ 10 μM

SMILES	inhibition at 1 µM	inhibition at 10 µM
Cc1nccc(-c2ccc(O)c(C(=O)N3Cc4ccccc4C3)c2)n1 [Example 35, 2-(1,3-dihydro-2H-isoindol-2-ylcarbonyl)-4-(2-methylpyrimidin-4-yl)phenol]	6.1%	32.8%
C[C@H](c1ccccc1)N(C)C(=O)c1ccc(O)cc1O [Example 67, 2,4-dihydroxy-N-methyl-N-(1-phenylethyl)benzamide]	-0.8%	35.4%
COc1ccc2cc(O)c(C(=O)N3Cc4ccccc4C3)cc2c1 [Example 25, 3-(1,3-dihydro-2H-isoindol-2-ylcarbonyl)-6-methoxy-2-naphthol]	9.9%	13.7%
O=C(c1ccc(O)cc1O)N1CCc2ccccc2C1c1ccccc1 (stereo not drawn) [Example 103, (2,4-Dihydroxy-phenyl)-(1-phenyl-3,4-dihydro-1H-isoquinolin-2-yl)-methanone]	64.5%	87.8%
Cc1noc(C)c1COCC1COCCN(C(=O)c2ccc(O)cc2O)C1 (stereo not drawn) [Example 98, 4-[(6-{[(3,5-dimethylisoxazol-4-yl)methoxy]methyl}-1,4-oxazepan-4-yl)carbonyl]benzene-1,3-diol]	26.7%	65.9%
O=C(c1ccc(O)cc1O)N1CCC(CCc2ccccc2)CC1 [Example 49, 4-{[4-(2-phenylethyl)piperidin-1-yl]carbonyl}benzene-1,3-diol]	61.2%	86.3%
O=C(c1ccc(O)cc1O)N1CCCCC1 [Example 63, 4-(piperidin-1-ylcarbonyl)benzene-1,3-diol]	32.2%	72%
O=C(c1ccc(O)cc1O)N1CCC2(CC1)CC(OCc1ccccc1F)CO2 (stereo not drawn) [Example 51, 4-({3-[(2-fluorobenzyl)oxy]-1-oxa-8-azaspiro[4.5]dec-8-yl}carbonyl)benzene-1,3-diol]	22.1%	70.9%
O=C(c1ccc(O)cc1O)N1CC=CCC1 [Example 97, 4-(3,6-dihydropyridin-1(2H)-ylcarbonyl)benzene-1,3-diol]	62.7%	82.6%
O=C(c1ccc(O)cc1O)N1CCSCC1 [Example 133, 4-(thiomorpholin-4-ylcarbonyl)benzene-1,3-diol]	42.6%	80%
CCc1nccc(-c2ccc(O)c(C(=O)N3Cc4ccccc4C3)c2)n1 [Example 34, 2-(1,3-dihydro-2H-isoindol-2-ylcarbonyl)-4-(2-ethylpyrimidin-4-yl)phenol]	-3.1%	43%
CCOC(=O)C1CCCN(C(=O)c2ccc(O)cc2O)C1 (stereo not drawn) [Example 52, ethyl 1-(2,4-dihydroxybenzoyl)piperidine-3-carboxylate]	39.1%	80.2%
O=C(c1ccc(O)cc1O)N1CCC(O)(c2ccccc2)CC1 [Example 77, 4-[(4-hydroxy-4-phenylpiperidin-1-yl)carbonyl]benzene-1,3-diol]	44.6%	79.6%
O=C(c1ccc(Cl)cc1O)N1Cc2ccccc2C1 [Example 26, 5-chloro-2-(1,3-dihydro-2H-isoindol-2-ylcarbonyl)phenol]	1%	39%
O=C(c1ccc(O)cc1O)N1CCC(Oc2ccc(Cl)cc2)CC1 [Example 68, 4-{[4-(4-chlorophenoxy)piperidin-1-yl]carbonyl}benzene-1,3-diol]	37.2%	78.6%

— patent US20090215742A1, “AMIDE […]” (PFIZER, INC., priority 2005, published 2009)
